Measured values published in patent publication US10815208B2, “Method for preparing 2-hydroxyl-4-(2, 3-disubstituted benzyloxy)-5-substituted benzaldehyde derivative” (Institute of Materia Medica, Chinese Academy of Medical …, priority 2016, dated 2020).
pIC50: −log10 of the molar value.

Columns and labels:
[1] = test system: advanced Hodgkin's lymphoma (HL); details: advanced HL patients with no treatment response to any of the approved drugs; cited from earlier work
PD-1/PD-L1 = PD-1/PD-L1 (Homo sapiens (Human), UniProt Q9NZQ7); experiment: Cisbio HTRF binding assay, PD-1/PD-L1 small molecule inhibitor screening; details: for pIC50: HTRF, PD-1 (HIS tag) / PD-L1 (hFc tag), 8-10 concentrations
Source text: In vitro activity evaluation: Cisbio HTRF binding assay kit was applied for the detection method of in vitro enzymology level.
Screening Principles and Methods of PD-1/PD-L1 Small Molecule Inhibitors
1) Principle: PD-1 protein is with HIS tag, and PD-1 ligand PD-L1 is with hFc tag. Eu labeled anti-hFc antibody and XL665 labeled anti-HIS antibody are combined with the above two label proteins respectively. After laser excitation, energy can be transferred from donor Eu to receptor XL665, allowing XL665 to glow.
2) Experimental method: Reagents should be dispensed in the following order. For 384-well white ELISA plate, 2 μl of diluent or target compound diluted with diluent was added to each well, and then 4 μl of PD-1 protein and 4 μl of PD-L1 protein were added per well, incubated for 15 min at the room temperature; and 10 μl of anti-Tag1-Eu3^+ and anti-Tag2-XL665 was added per well and incubated for 1 h at the room temperature and the fluorescence signals at 665 nm and 620 nm were measured. HTRF rate=(665 nm/620 nm)*10^4. 8-10 concentrations were detected for each compound and IC50 was calculated by Graphpad software.

[2] = test system: advanced triple-negative breast cancer; details: in vivo; cited from earlier work
[3] = test system: pleural mesothelioma (PM); details: 25 patients with pleural mesothelioma (PM); cited from earlier work

Chain of PD-1/PD-L1 (Q9NZQ7 19-238): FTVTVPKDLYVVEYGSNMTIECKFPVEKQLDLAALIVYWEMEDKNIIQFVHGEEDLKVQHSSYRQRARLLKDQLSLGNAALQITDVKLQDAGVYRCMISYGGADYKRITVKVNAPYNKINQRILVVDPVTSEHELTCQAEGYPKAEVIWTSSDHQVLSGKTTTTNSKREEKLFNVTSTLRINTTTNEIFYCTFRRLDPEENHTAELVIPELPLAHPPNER

| Compound | treatment response [1] | inhibition of the interaction between PD-1 and PD-L1 (PD-1/PD-L1) | pIC50 (PD-1/PD-L1) | further results |
| --- | --- | --- | --- | --- |
| nivolumab [Opdvio] | complete remission | – | – | – |
| CC(=O)NCCNCc1cc(Cl)c(OCc2cccc(-c3ccccc3)c2Br)cc1OCc1cccc(C#N)c1 [Example 2, N-acetylaminoethyl-4-(2-bromo-3-phenylbenzyloxy)-2-(3-cyanobenzyloxy)-5-chlorobenzylamine] | – | significantly inhibit | 7.21 | – |
| (R)—N-[2-(5-cyanopyridine-3-methyleneoxy)-4-(2-methyl-3-(2,3-dihydrobenzo[b][1,4]dioxin-6-yl)benzyloxy)-5-chlorobenzyl]-3-(pyridin-3-yl)alanine [Example 6] | – | significantly inhibit | 7.46 | – |
| MPDL3280A: Roche's PD-L1 monoclonal antibody | – | – | – | effect in advanced triple-negative breast cancer [2]: long-lasting effect |
| pembrolizumab [Keytruda] | complete remission | – | – | disease control rate [3]: 76%; overall response rate (ORR) [3]: 28% |
